Source: patent US7964735B2, “Insecticidal 3-acylaminobenzanilides” (Bayer Cropscience AG, priority 2005, dated 2011)

tested on: not given; assay: not given; conditions: not given

Row | melting point [°C] | Compound
1 | 141 to 145 | Cc1cc(C(F)(C(F)(F)F)C(F)(F)F)cc(C)c1NC(=O)c1cccc(NC(=O)c2ccccc2Cl)c1 [Compound 75, 3-(2-chlorobenzoyl)amino-N-(2,6-dimethyl-4-heptafluoroisopropylphenyl)benzamide]

tested on: organic phosphorus agent- and carbamate agent-resistant Myzus persicasypii; assay: Test to organic phosphorus agent- and carbamate agent-resistant Myzus persicasypii (spray on eggplant); assay type: in vivo; conditions: efficacious component concentration 500 ppm; sprayed on eggplant; 28° C.; after 7 days from spraying
Procedure: (§1) • Sample Solution Preparation • Solvent: dimethylformamide 3 part by weight • Emulsifier: polyoxyethylene alkyl phenyl ether 1 part by weight
(§2) To prepare a proper active compound, the active compound 1 part by weight was mixed with the above-mentioned solvent containing the above-mentioned emulsifier and the mixture was diluted with water to a prescribed concentration.
30 grown organic phosphorus agent- and carbamate agent-resistant Myzus persicasypii were inoculated in each vinyl pot with 6 cm diameter in which eggplant seeding was done and after 1 day from the inoculation, the above produced active compound diluted with water to have a prescribed concentration was sufficiently sprayed by a spray gun. After the spraying, the vinyl pots were left in a greenhouse at 28° C. and the insect extermination ratio was calculated after 7 days from spraying. The test was repeated two times.

Row | Compound | insecticidal ratio (insect extermination ratio) [%]
2 | CCc1cc(C(F)(C(F)(F)F)C(F)(F)F)cc(C)c1NC(=O)c1cccc(NC(=O)c2ccc(F)cc2)c1 [Compound 61] | 100
3 | CCc1cc(C(F)(C(F)(F)F)C(F)(F)F)cc(C)c1NC(=O)c1cccc(NC(=O)c2ccccc2Cl)c1 [Compound 57] | 100
4 | Cc1cc(C(F)(C(F)(F)F)C(F)(F)F)cc(C)c1NC(=O)c1cccc(NC(=O)c2ccc(Cl)cc2)c1F [Compound 139] | 100
5 | CCc1cc(C(F)(C(F)(F)F)C(F)(F)F)cc(C)c1NC(=O)c1cccc(NC(=O)c2ccccc2F)c1 [Compound 63] | 100
6 | CCc1cc(C(F)(C(F)(F)F)C(F)(F)F)cc(C)c1NC(=O)c1cccc(NC(=O)c2cccc(Cl)c2)c1 [Compound 58] | 100
7 | CCc1cc(C(F)(C(F)(F)F)C(F)(F)F)cc(C)c1NC(=O)c1cccc(NC(=O)c2cnccc2C(F)(F)F)c1 [Compound 1, 3-[4-(trifluoromethyl)nicotinyl]amino-N-(2-ethyl-6-methyl-4-heptafluoroisopropylphenyl)benzamide] | 100

tested on: third stage larvae of Spodoptera litura; assay: Test to larvae of Spodoptera litura (leaf immersion); assay type: in vivo; conditions: efficacious component concentration 20 ppm; batata leaves immersed; 25° C.; after 7 days; average of two dishes
Procedure: as §1, §2
Leaves of batata were immersed in the sample solution diluted with water to a prescribed concentration and then the solution was dried out by air and the resulting leaves were put in a laboratory dish and 10 third stage larvae of Spodoptera litura were released and put in a greenhouse at a temperature 25° C. and the leaves of batata were added on second day and fourth day and the number of dead larvae was investigated after 7 days and the ratio of the dead larvae was calculated.
The results were the averages of two laboratory dishes for respective 1 group in this test.

Row | Compound | insecticidal ratio (ratio of the dead larvae) [%]
8 | CCc1cc(C(F)(C(F)(F)F)C(F)(F)F)cc(C)c1NC(=O)c1cccc(NC(=O)c2ccc(F)cc2)c1 [Compound 61] | 100
9 | Cc1cc(C(F)(C(F)(F)F)C(F)(F)F)cc(C)c1NC(=O)c1cccc(NC(=O)c2ccc(Cl)cc2)c1 [Compound 77] | 100
10 | CCc1cc(C(F)(C(F)(F)F)C(F)(F)F)cc(C)c1NC(=O)c1cccc(NC(=O)c2ccco2)c1 [Compound 32] | 100
11 | CCc1cc(C(F)(C(F)(F)F)C(F)(F)F)cc(C)c1NC(=O)c1cccc(NC(=O)c2snnc2C)c1 [Compound 35] | 100
12 | CCc1cc(C(F)(C(F)(F)F)C(F)(F)F)cc(C)c1NC(=O)c1cccc(NC(=O)c2cccs2)c1 [Compound 30] | 100
13 | CCc1cc(C(F)(C(F)(F)F)C(F)(F)F)cc(C)c1NC(=O)c1cccc(NC(=O)c2c(Cl)cccc2Cl)c1 [Compound 46] | 100
14 | CCc1cc(C(F)(C(F)(F)F)C(F)(F)F)cc(C)c1NC(=O)c1cccc(NC(=O)c2cc(Cl)sc2Cl)c1 [Compound 24] | 100
15 | CCc1cc(C(F)(C(F)(F)F)C(F)(F)F)cc(C)c1NC(=O)c1cccc(NC(=O)c2ccc(Br)cc2)c1 [Compound 42] | 100
16 | CCc1cc(C(F)(C(F)(F)F)C(F)(F)F)cc(C)c1NC(=O)c1cccc(NC(=O)c2ccc(OC)cc2)c1 [Compound 60] | 100
17 | CCc1cc(C(F)(C(F)(F)F)C(F)(F)F)cc(C)c1NC(=O)c1cccc(NC(=O)c2ccc(Cl)nc2)c1 [Compound 3] | 100
18 | Cc1cc(C(F)(C(F)(F)F)C(F)(F)F)cc(C)c1NC(=O)c1cccc(NC(=O)c2ccccc2Cl)c1F [Compound 134] | 100
19 | CCc1cc(C(F)(C(F)(F)F)C(F)(F)F)cc(C)c1NC(=O)c1cccc(NC(=O)c2ccc(Cl)cc2Cl)c1 [Compound 44] | 100
20 | CCc1cc(C(F)(C(F)(F)F)C(F)(F)F)cc(C)c1NC(=O)c1cccc(NC(=O)c2c(F)cccc2F)c1 [Compound 54] | 100
21 | CCc1cc(C(F)(C(F)(F)F)C(F)(F)F)cc(C)c1NC(=O)c1cccc(NC(=O)c2cccc(F)c2)c1 [Compound 62] | 100
22 | Cc1cc(C(F)(C(F)(F)F)C(F)(F)F)cc(C)c1NC(=O)c1cccc(NC(=O)c2c(F)cccc2F)c1 [Compound 72] | 100
23 | CCc1cc(C(F)(C(F)(F)F)C(F)(F)F)cc(C)c1NC(=O)c1cccc(NC(=O)c2ccc(C)cc2)c1 [Compound 64] | 100
24 | CCc1cc(C(F)(C(F)(F)F)C(F)(F)F)cc(C)c1NC(=O)c1cccc(NC(=O)c2cc(Cl)ccc2Cl)c1 [Compound 48] | 100
25 | CCc1cc(C(F)(C(F)(F)F)C(F)(F)F)cc(C)c1NC(=O)c1cccc(NC(=O)c2c(F)cc(F)cc2F)c1 [Compound 52] | 100
26 | CCc1cc(C(F)(C(F)(F)F)C(F)(F)F)cc(C)c1NC(=O)c1cccc(NC(=O)c2ccc(OC(F)(F)F)cc2)c1 [Compound 39] | 100
27 | Cc1cc(C(F)(C(F)(F)F)C(F)(F)F)cc(I)c1NC(=O)c1cccc(NC(=O)c2ccccc2Cl)c1 [Compound 37] | 100

Row | Compound | insecticidal ratio (ratio of the dead larvae) [%]
28 | CCc1cc(C(F)(C(F)(F)F)C(F)(F)F)cc(C)c1NC(=O)c1cccc(NC(=O)c2cccc(F)c2F)c1 [Compound 55] | 100
29 | Cc1cc(C(F)(C(F)(F)F)C(F)(F)F)cc(C)c1NC(=O)c1cccc(NC(=O)c2ccc(Cl)cc2)c1F [Compound 139] | 100
30 | CCc1cc(C(F)(C(F)(F)F)C(F)(F)F)cc(C)c1NC(=O)c1cccc(NC(=O)c2ccccc2F)c1 [Compound 63] | 100
31 | CCc1cc(C(F)(C(F)(F)F)C(F)(F)F)cc(C)c1NC(=O)c1cccc(NC(=O)c2ccc(Cl)cc2)c1 [Compound 59] | 100
32 | CCc1cc(C(F)(C(F)(F)F)C(F)(F)F)cc(C)c1NC(=O)c1cccc(NC(=O)c2cccc(Cl)c2Cl)c1 [Compound 47] | 100
33 | CCc1cc(C(F)(C(F)(F)F)C(F)(F)F)cc(C)c1NC(=O)c1cccc(NC(=O)c2ccccc2[N+](=O)[O-])c1 [Compound 53] | 100
34 | CCc1cc(C(F)(C(F)(F)F)C(F)(F)F)cc(C)c1NC(=O)c1cccc(NC(=O)c2ccc(Cl)c(Cl)c2)c1 [Compound 43] | 100
35 | CCc1cc(C(F)(C(F)(F)F)C(F)(F)F)cc(C)c1NC(=O)c1cccc(NC(=O)c2cccc(Br)c2)c1 [Compound 41] | 100
36 | CCc1cc(C(F)(C(F)(F)F)C(F)(F)F)cc(C)c1NC(=O)c1cccc(NC(=O)c2ccc(C(F)(F)F)cc2)c1 [Compound 49] | 100
37 | CCc1cc(C(F)(C(F)(F)F)C(F)(F)F)cc(C)c1NC(=O)c1cccc(NC(=O)c2cccc(Cl)c2)c1 [Compound 58] | 100
38 | CCc1cc(C(F)(C(F)(F)F)C(F)(F)F)cc(C)c1NC(=O)c1cccc(NC(=O)c2ccccc2C)c1 [Compound 66] | 100
39 | CCc1cc(C(F)(C(F)(F)F)C(F)(F)F)cc(C)c1NC(=O)c1cccc(NC(=O)c2cnccc2C(F)(F)F)c1 [Compound 1, 3-[4-(trifluoromethyl)nicotinyl]amino-N-(2-ethyl-6-methyl-4-heptafluoroisopropylphenyl)benzamide] | 100
40 | CCc1cc(C(F)(C(F)(F)F)C(F)(F)F)cc(C)c1NC(=O)c1cccc(NC(=O)c2ncc(C(F)(F)F)cc2Cl)c1 [Compound 13] | 100
41 | CCc1cc(C(F)(C(F)(F)F)C(F)(F)F)cc(C)c1NC(=O)c1cccc(NC(=O)c2ccc(F)cc2F)c1 [Compound 56] | 100
42 | CCc1cc(C(F)(C(F)(F)F)C(F)(F)F)cc(C)c1NC(=O)c1cccc(NC(=O)c2ccccc2I)c1 [Compound 36] | 100
43 | CCc1cc(C(F)(C(F)(F)F)C(F)(F)F)cc(C)c1NC(=O)c1cccc(NC(=O)c2ccccc2Cl)c1 [Compound 38] | 100
44 | Cc1cc(C(F)(C(F)(F)F)C(F)(F)F)cc(C)c1NC(=O)c1cccc(NC(=O)c2ccccc2)c1 [Compound 88] | 100
45 | CCc1cc(C(F)(C(F)(F)F)C(F)(F)F)cc(C)c1NC(=O)c1cccc(NC(=O)c2ccccc2C(F)(F)F)c1 [Compound 51] | 100
46 | CCc1cc(C(F)(C(F)(F)F)C(F)(F)F)cc(C)c1NC(=O)c1cccc(NC(=O)c2cc(Cl)cc(Cl)c2)c1 [Compound 45] | 100
47 | CCc1cc(C(F)(C(F)(F)F)C(F)(F)F)cc(C)c1NC(=O)c1cccc(NC(=O)c2ccccc2Br)c1 [Compound 40] | 100
